Results as given in patent US20090318449A1, “THERAPEUTIC LACTAMS” (ALLERGAN, INC., priority 2008, published 2009).

Tested on: lashes and adjacent hairs of glaucoma patients
Assay: Eyelash/hair growth observed in glaucoma patients treated in one eye
Type: in vivo, humans
Conditions: glaucoma patients treated in only one eye
Text: In the course of treating patients having glaucoma, treatment may only be appropriate in one eye. […] The lash appearance on the lids of the treated eyes would have appeared quite attractive if it represented a bilateral phenomenon. As a result of its asymmetric nature, the long lashes on one side could be construed as disturbing from a cosmetic standpoint. A systemic examination was preformed as a result of the asymmetric phenomenon. It soon became apparent that this altered appearance was not an isolated finding. […] Definite differences could be identified to varying degrees in the lashes and adjacent hairs of all patients who were taking the drug on a unilateral basis for longer than 6 months.
The changes in the lashes were apparent on gross inspection in several patients once attention was focused on the issue. In those with light colored hair and lashes, the differences were only seen easily with the aid of the high magnification and lighting capabilities of the slit lamp biomicroscope. In the course of glaucoma follow-up examination, attention is generally immediately focused on the eye itself. As a result of the high power magnification needed only one eye is seen at a time and the eye is seen at a high enough power that the lashes are not in focus. […]

## CCNC(=O)CCC/C=C\C[C@@H]1[C@@H](/C=C/[C@@H](O)CCc2ccccc2)[C@H](O)C[C@@H]1O [bimatoprost]
  lash appearance, treated eye versus non-treated eye: longer, thicker, and fuller
